# Assays:
# rabbits [1] = assay: Systemic blood pressure and pulse rate (tail cuff) after eye drops; format: in vivo, rabbit; settings: 0.03% eye drops
# Method: (§1) The effect of nitroglycerine eye drops on rabbit intraocular pressure was also measured. The IOP of 8 conscious, male albino rabbits (3-4 kg) was measured by applanation pnumatonometry after topical anesthesia with 0.4% benoxinate. Nitroglycerine in phosphate buffered saline, pH 7.4, was given unilaterally, in two 25µl drops spaced five minutes apart. Blood pressure and pulse rate were measured by a photoelectric detector using an automated external tail cuff. […] By 24 hours, pressure had returned to normal.
# guanylate cyclase = assay: Guanylate cyclase activation in crude broken-cell preparation of ciliary process; format: biochemical, rabbit; settings: low concentrations
# Method: Generally, the broken cell preparations are prepared according to the method described in a paper by Nathanson et al., (Molecular Pharmacology 20:68 (1981), which is herein incorporated by reference. Choroid epithelial cells are prepared as described in Example 1. To measure activity of atriopeptins, analogues, or agonists thereof, washed particulate cell preparations are prepared by using the pellet obtained following high speed centrifugation. To measure direct activators of guanylate cyclase, the crude broken-cell preparation without centrifugation is used. Guanylate cyclase activity is measured in appropriate buffer-containing GTP, cofactors, tissue fraction, and the compound to be tested. […] Cyclic GMP can be measured by any test which indicates the presence thereof, typically by the radioimmunoassay as described in Example 6. […] Ka^B, where B is the test compound, is compared with the constant (Ka^ANF) determined in an analogous way using rat atrial natriuretic factor (rANF) as a standard. […]
# The effect of rANP on membrane-bound guanylate cyclase and adenylate cyclase activity in various brain-barrier tissues and tissue fractions from rabbit was compared with its activity in cerebrum and cerebellum. Guanylate cyclase was measured as the rate of cyclic GMP formation by modifications of the technique of Waldman et al., supra, incorporated herein by reference. […]
# rabbits [2] = assay: Intraocular pressure and ocular observations after topical (eye drop) application; format: in vivo, rabbit
# Method: The measurement of intraocular pressure (IOP), was performed using procedures similar to those described in Nathanson, Brit. J. Pharmacol., 73:97 (1981) and Nathanson, Current Eye Res., 4:191 (1985). Briefly, male (3-5 kg), New Zealand white rabbits were housed under standard conditions and exposed to a 12 hr light-dark cycle. IOP was measured with a Perkins applanation tonometer after topical anesthesia with 0.4% benoxinate (and 0.25% sodium fluorescein). The tonometer had been calibrated previously by connecting the anterior chamber of enucleated rabbit eyes to a manometer (and reservoir) and taking tonometer readings at different pressures. A number of preliminary IOP readings were made in order to accommodate the animals to the measurement procedure. Readings were then taken just prior to drug or vehicle injection and at 3, 9, 20, 27, 44, 51, 72, and 144 hours post-injection.
# A potent PDE inhibitor of the arylxanthine class, 1,3-dibutylxanthine, was applied unilaterally and topically to rabbit eyes in a 0.5% solution. […] The IOP was decreased 4 mm (Hg) in the ipsilateral eye (Figure 8).
# Again there was about a 4 mm (Hg) decrease in intraocular pressure. […] This xanthine inhibited the enzyme with an IC₅₀ (concentration necessary for 50% enzyme inhibition) of 25 uM.
# as §1
# volunteer human = assay: Eye drop in a volunteer human: IOP, blood pressure and pulse; format: in vivo; settings: 50µl of 0.1% aqueous solution in one eye
# Method: The effect of administration of a nitroglycerine eye drop preparation (50µl of 0.1% aqueous solution in one eye) in a volunteer human is illustrated in Figure 14. IOP was measured by applanation pnumatonometry and blood pressure and pulse were measured by arm cuff.
smiles,measurement,setting,value
"O=[N+]([O-])OCC(CO[N+](=O)[O-])O[N+](=O)[O-] [nitroglycerine, 1,2,3-propanetriol trinitrate]","change in pulse rate or in systolic, diastolic or mean blood pressure",rabbits [1],no significant change
same,stimulation of basal guanylate cyclase activity,guanylate cyclase,significant stimulation
same,decrease in IOP at maximum,"rabbits [2]; 0.03% (gm/100ml) solution, two 25µl drops, 8 rabbits",5.2 mm Hg
same,IOP at six hours,rabbits [2]; 0.03% solution,still significantly reduced
same,time of greatest IOP decrease,rabbits [2]; 0.03% solution,greatest at one hour
same,time until pressure had returned to normal,rabbits [2]; 0.03% solution,≤ 24 h
same,effect of higher doses on IOP,"rabbits [2]; 50µl eye drops, doses above 0.03%, Fig. 13",no additional decrease in IOP
same,effect of lower doses on IOP,"rabbits [2]; 50µl eye drops, lower doses, Fig. 13",less effective
same,conjunctival inflammation and pupillary diameter,rabbits [2]; all doses,At no dose did conjunctival inflammation nor any change in pupillary diameter occur
same,contralateral decrease in pressure relative to that seen ipsilaterally,rabbits [2]; higher doses,40-75%
same,hyperemia of the conjunctival vessels,rabbits [2]; higher doses (0.1%),"slight, transient (five minutes) hyperemia"
same,effect on IOP,volunteer human,significantly decreased IOP
same,systemic blood pressure or pulse,volunteer human,without change

# Reference: patent publication EP0583821A1, “Atriopeptins, guanylate cyclase activators, and phosphodiesterase inhibitors as treatment for glaucoma, hydrocephalus and cerebral edema (cranial fluid volume dysfunction)” (THE GENERAL HOSPITAL CORPORATION, priority 1987, dated 1988)
